Assay results reported in patent US11452717B2, “Small molecule activators of nicotinamide phosphoribosyltransferase (NAMPT) and uses thereof” (Sanford Burnham Prebys Medical Discovery Institute, priority 2017, dated 2022).
pEC50: −log10 of the molar value.

molecular target: NAMPT enzyme (Homo sapiens (Human), UniProt P43490); experiment: Enzyme Assay and NMN Detection (NAMPT reaction, fluorescence detection of NMN); type: biochemical; conditions: Table B-1; NAMPT activation, NMN formation
In short: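 NMN formed was read at ex380/em460 after acetophenone/KOH derivatization and formic acid addition, using a same-day calibration curve. Final conditions: NAMPT 16 nM, nicotinamide 5 uM, PRPP 6.25 uM, ATP 120 uM, pyrophosphatase 0.04 U/ml, pH 7.5 HEPES buffer with MgCl2 and TCEP, 2 h at room temperature.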

Chain of NAMPT enzyme (P43490 whole entry, species assumed): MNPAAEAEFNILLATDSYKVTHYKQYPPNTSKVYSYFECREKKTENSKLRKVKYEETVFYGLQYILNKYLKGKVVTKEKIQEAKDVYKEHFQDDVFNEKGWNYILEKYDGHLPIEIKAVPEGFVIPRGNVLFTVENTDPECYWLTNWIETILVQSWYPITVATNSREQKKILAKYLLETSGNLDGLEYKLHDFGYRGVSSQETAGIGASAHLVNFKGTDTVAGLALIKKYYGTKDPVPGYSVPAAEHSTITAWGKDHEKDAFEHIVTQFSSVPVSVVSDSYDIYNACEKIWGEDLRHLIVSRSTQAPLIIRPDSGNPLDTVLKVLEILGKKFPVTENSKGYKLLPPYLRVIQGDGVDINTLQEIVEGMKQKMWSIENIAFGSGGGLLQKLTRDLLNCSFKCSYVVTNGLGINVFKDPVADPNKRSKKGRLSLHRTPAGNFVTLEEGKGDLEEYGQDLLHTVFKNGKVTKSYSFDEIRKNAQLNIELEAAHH

| Compound | pEC50 |
| --- | --- |
| O=C(NCc1cn[nH]c1)Nc1ccc(S(=O)(=O)Nc2ccccc2)cc1 [N-Phenyl-4-[3-(1H-pyrazol-4-ylmethyl)-ureido]-benzenesulfonamide] | 5.70 to 7.00 |
| O=C(NCc1cnco1)Nc1ccc(NS(=O)(=O)c2ccccc2)cc1 [N-[4-(3-Oxazol-5-ylmethyl-ureido)-phenyl]-benzenesulfonamide] | 5.70 to 7.00 |

same assay, conditions: Table B-2; NAMPT activation, NMN formation

| Compound | pEC50 |
| --- | --- |
| CC(C)NS(=O)(=O)c1ccc(NC(=O)NCc2ccncc2)cc1 [N-Isopropyl-4-(3-pyridin-4-ylmethyl-ureido)-benzenesulfonamide] | 5.70 to 7.00 |
| CC(C)N(c1ccc(NC(=O)NCc2ccncc2)cc1)S(=O)(=O)Cc1ccccc1 [N-Isopropyl-C-phenyl-N-[4-(3-pyridin-4-ylmethyl-ureido)-phenyl]-methanesulfonamide] | 5.30 to 5.70 |
| CC(C)N(c1ccc(NC(=O)NCc2ccncc2)cc1)S(=O)(=O)c1ccccc1 [N-Isopropyl-N-[4-(3-pyridin-4-ylmethyl-ureido)-phenyl]-benzenesulfonamide] | 5.30 to 5.70 |
| CN(Cc1ccccc1OC(F)(F)F)S(=O)(=O)c1ccc(NC(=O)NCc2ccncc2)cc1 [N-Methyl-4-(3-pyridin-4-ylmethyl-ureido)-N-(2-trifluoromethoxy-benzyl)-benzenesulfonamide] | > 7.00 |
| CNS(=O)(=O)c1ccc(NC(=O)NCc2ccncc2)cc1 [N-Methyl-4-(3-pyridin-4-ylmethyl-ureido)-benzenesulfonamide] | 5.30 to 5.70 |
| Cc1ccccc1CN(C)S(=O)(=O)c1ccc(NC(=O)NCc2ccncc2)cc1 [N-Methyl-N-(2-methyl-benzyl)-4-(3-pyridin-4-ylmethyl-ureido)-benzenesulfonamide] | > 7.00 |
| CN(c1ccc(NC(=O)NCc2ccncc2)cc1)S(=O)(=O)c1ccccc1 [N-Methyl-N-[4-(3-pyridin-4-ylmethyl-ureido)-phenyl]-benzenesulfonamide] | 5.70 to 7.00 |
| CN(c1ccccc1)S(=O)(=O)Cc1ccc(NC(=O)NCc2ccncc2)cc1 [N-Methyl-N-phenyl-C-[4-(3-pyridin-4-ylmethyl-ureido)-phenyl]-methanesulfonamide] | 5.70 to 7.00 |
| O=C(NCc1ccncc1)Nc1ccc(S(=O)(=O)Nc2ccccc2)cc1 [N-Phenyl-4-(3-pyridin-4-ylmethyl-ureido)-benzenesulfonamide] | 5.70 to 7.00 |
| O=C(NCc1ccncc1)Nc1ccc(CS(=O)(=O)Nc2ccccc2)cc1 [N-Phenyl-C-[4-(3-pyridin-4-ylmethyl-ureido)-phenyl]-methanesulfonamide] | 5.70 to 7.00 |
| CCCNS(=O)(=O)c1ccc(NC(=O)NCc2ccncc2)cc1 [N-Propyl-4-(3-pyridin-4-ylmethyl-ureido)-benzenesulfonamide] | 5.70 to 7.00 |
| O=C(NCc1ccncc1)Nc1ccc(S(=O)(=O)Nc2ccccn2)cc1 [N-Pyridin-2-yl-4-(3-pyridin-4-ylmethyl-ureido)-benzenesulfonamide] | < 4.70 |
| O=C(NCc1ccncc1)Nc1ccc(S(=O)(=O)NCc2ccncc2)cc1 [N-Pyridin-4-ylmethyl-4-(3-pyridin-4-ylmethyl-ureido)-benzenesulfonamide] | 5.70 to 7.00 |
| CN1CCN(CCNS(=O)(=O)c2ccc(NC(=O)NCc3ccncc3)cc2)CC1 [N-[2-(4-Methyl-piperazin-1-yl)-ethyl]-4-(3-pyridin-4-ylmethyl-ureido)-benzenesulfonamide] | 5.70 to 7.00 |
| O=C(NCc1ccccc1)Nc1ccc(NS(=O)(=O)Cc2ccccc2)cc1 [N-[4-(3-Benzyl-ureido)-phenyl]-C-phenyl-methanesulfonamide] | > 7.00 |
| O=C(NCc1ccncc1)Nc1ccc(NS(=O)(=O)c2ccccc2)cc1 [N-[4-(3-Pyridin-4-ylmethyl-ureido)-phenyl]-benzenesulfonamide] | > 7.00 |
| O=C(NCc1ccncc1)Nc1cccc(S(=O)(=O)NCc2ccccc2)c1 [N-benzyl-3-(3-(pyridin-4-ylmethyl)ureido)benzenesulfonamide] | 4.70 to 5.30 |

| Compound | pEC50 |
| --- | --- |
| CN(Cc1ccccc1)C(=O)c1ccc(NC(=O)NCc2ccncc2)cc1 [N-benzyl-N-methyl-4-(3-(pyridin-4-ylmethyl)ureido)benzamide] | 5.70 to 7.00 |
| CCCCNC(=O)c1ccc(NC(=O)NCc2ccncc2)cc1 [N-butyl-4-(3-(pyridin-4-ylmethyl)ureido)benzamide] | 5.70 to 7.00 |
| O=C(NCc1ccncc1)Nc1ccc(C(=O)NC2CCC2)cc1 [N-cyclobutyl-4-(3-(pyridin-4-ylmethyl)ureido)benzamide] | 4.70 to 5.30 |
| O=C(NCc1ccncc1)Nc1ccc(C(=O)NC2CCCCC2)cc1 [N-cyclohexyl-4-(3-(pyridin-4-ylmethyl)ureido)benzamide] | 5.30 to 5.70 |
| O=C(NCc1ccncc1)Nc1cccc(S(=O)(=O)NC2CCCC2)c1 [N-cyclopentyl-3-(3-(pyridin-4-ylmethyl)ureido)benzenesulfonamide] | < 4.70 |
| O=C(NCc1ccncc1)Nc1ccc(C(=O)NC2CCCC2)cc1 [N-cyclopentyl-4-(3-(pyridin-4-ylmethyl)ureido)benzamide] | 4.70 to 5.30 |
| O=C(NCc1ccncc1)Nc1ccc(S(=O)(=O)NC2CCCC2)cc1 [N-cyclopentyl-4-(3-pyridin-4-ylmethyl-ureido)-benzenesulfonamide] | 5.70 to 7.00 |
| CCN(C)C(=O)c1ccc(NC(=O)NCc2ccncc2)cc1 [N-ethyl-N-methyl-4-(3-(pyridin-4-ylmethyl)ureido)benzamide] | 4.70 to 5.30 |
| CC(C)CNC(=O)c1ccc(NC(=O)NCc2ccncc2)cc1 [N-isobutyl-4-(3-(pyridin-4-ylmethyl)ureido)benzamide] | 5.70 to 7.00 |
| CN(Cc1ccccc1C(F)(F)F)S(=O)(=O)c1ccc(NC(=O)NCc2ccncc2)cc1 [N-methyl-4-(3-(pyridin-4-ylmethyl)ureido)-N-(2-(trifluoromethyl)benzyl)benzenesulfonamide] | > 7.00 |
| Cc1ccc(N(C)C(=O)c2ccc(NC(=O)NCc3ccncc3)cc2)cc1 [N-methyl-4-(3-(pyridin-4-ylmethyl)ureido)-N-(p-tolyl)benzamide] | 4.70 to 5.30 |
| CN(c1ccc(NC(=O)NCc2ccncc2)cc1)S(=O)(=O)Cc1ccccc1 [N-methyl-C-phenyl-N-[4-(3-pyridin-4-ylmethyl-ureido)-phenyl]-methanesulfonamide] | > 7.00 |
| CCCN(C)C(=O)c1ccc(NC(=O)NCc2ccncc2)cc1 [N-methyl-N-propyl-4-(3-(pyridin-4-ylmethyl)ureido)benzamide] | 4.70 to 5.30 |
| CC(C)(C)CNS(=O)(=O)c1ccc(NC(=O)NCc2ccncc2)cc1 [N-neopentyl-4-(3-pyridin-4-ylmethyl-ureido)-benzenesulfonamide] | 5.70 to 7.00 |
| O=C(NCc1ccncc1)Nc1cccc(S(=O)(=O)NCCc2ccccc2)c1 [N-phenethyl-3-(3-(pyridin-4-ylmethyl)ureido)benzenesulfonamide] | < 4.70 |
| O=C(NCc1ccncc1)Nc1ccc(C(=O)NCCc2ccccc2)cc1 [N-phenethyl-4-(3-(pyridin-4-ylmethyl)ureido)benzamide] | 5.70 to 7.00 |
| O=C(NCc1ccncc1)Nc1ccc(C(=O)Nc2ccccc2)cc1 [N-phenyl-4-(3-(pyridin-4-ylmethyl)ureido)benzamide] | 5.30 to 5.70 |

same assay, conditions: Table B-6; NAMPT activation, NMN formation

| Compound | pEC50 |
| --- | --- |
| Cc1cccc(CS(=O)(=O)Nc2ccc(NC(=O)NCc3ccncc3)cc2)c1 [N-[4-(3-Pyridin-4-ylmethyl-ureido)-phenyl]-C-m-tolyl-methanesulfonamide] | > 7.00 |
| Cc1ccc(CS(=O)(=O)Nc2ccc(NC(=O)NCc3ccncc3)cc2)cc1 [N-[4-(3-Pyridin-4-ylmethyl-ureido)-phenyl]-C-p-tolyl-methanesulfonamide] | > 7.00 |
